In ChEMBL document CHEMBL1132572 (J Med Chem, 1999):

Tests used:
[1] = system: Human immunodeficiency virus 1; assay: Concentration that inhibits Human Immunodeficiency Virus Type 1 (HIV-1)-induced death of MT-2 cells; type: functional, MT2; conditions: read-out: ED50 (the source's name)
[2] = biological target: Human immunodeficiency virus type 1 integrase (Human immunodeficiency virus 1, UniProt Q7ZJM1)
Description: Inhibitory activity against Human Immunodeficiency Virus Type 1 integrase (HIV-1 IN) in the disintegration assay.

MT2 = assay: Lethal dose (LD5) concentration inhibiting growth of MT-2 cells by 5%; type: toxicity, cell-based; conditions: human
[3] = system: Human immunodeficiency virus 1; conditions: read-out: ED50
[4] = system: Human immunodeficiency virus 1; conditions: read-out: ED50; remark: listed apart in the source
[5] = system: Human immunodeficiency virus 1; assay: microbe, parasite or virus in culture; conditions: Human immunodeficiency virus 1, read-out: ED50
[6] = Human immunodeficiency virus 1, MT2

Row | Compound | EC50 [1, 6] [µM] | IC50 [2] [µM] | LD5 (MT2) [µM] | EC50 [1] [µM] | EC50 [3] [µM] | EC50 [4] [µM] | EC50 [5] [µM]
1 | O=C(/C=C/c1ccc(O)c(O)c1)OC1CCCCC1OC(=O)/C=C/c1ccc(O)c(O)c1 (stereo not drawn) | > 136 | > 10 | 63.6 |  |  |  | 
2 | O=C(/C=C/c1ccc(O)cc1)OC(C(=O)O)C(OC(=O)/C=C/c1ccc(O)cc1)C(=O)O (stereo not drawn) | > 227 |  | 114 |  |  |  | 
3 | O=C(/C=C/c1ccc(O)c(O)c1)OCCCCOC(=O)/C=C/c1ccc(O)c(O)c1 | > 242 | > 10 | 121 |  |  |  | 
4 | O=C(/C=C/c1ccc(O)c(O)c1)O[C@H](C(=O)O)[C@H](OC(=O)/C=C/c1ccc(O)c(O)c1)C(=O)O [CHICORIC ACID] |  |  | 115 |  |  |  | 
5 | O=C(/C=C/c1ccc(O)c(O)c1)OC1CCCC(OC(=O)/C=C/c2ccc(O)c(O)c2)C1 (stereo not drawn) | > 34.1 | 1.8 | 9.1 |  |  |  | 
6 | O=C(/C=C/c1ccc(O)c(O)c1)OC(C(=O)OC(c1ccccc1)c1ccccc1)C(OC(=O)/C=C/c1ccc(O)c(O)c1)C(=O)OC(c1ccccc1)c1ccccc1 (stereo not drawn) | > 37.2 |  | 16.1 |  |  |  | 
7 | O=C(CCc1ccc(O)c(O)c1)OC(C(=O)O)C(OC(=O)CCc1ccc(O)c(O)c1)C(=O)O (stereo not drawn) |  | 2.38 | > 263 | 8.4 | 7.8 | 31.2 | 
8 | O=C(/C=C/c1ccc(O)c(O)c1)OCCOC(=O)/C=C/c1ccc(O)c(O)c1 | > 388 | > 10 | 194 |  |  |  | 
9 | O=C(/C=C/c1ccc(O)c(O)c1)O[C@@H]1C[C@@](O)(C(=O)O)CC(O)[C@@H]1OC(=O)/C=C/c1ccc(O)c(O)c1 (stereo partly drawn) | 12 | 1.4 | 116 |  |  |  | 
10 | O=C(/C=C/c1ccc(O)c(O)c1)OCCCOC(=O)/C=C/c1ccc(O)c(O)c1 | > 350 | > 10 | 117.5 |  |  |  | 
11 | O=C(O)C(O)C(O)C(=O)O (stereo not drawn) | > 1000 |  | > 1000 |  |  |  | 
12 | O=C(/C=C/c1ccc(O)c(O)c1)O[C@@H]1C[C@](O)(C(=O)O)C[C@@H](OC(=O)/C=C/c2ccc(O)c(O)c2)[C@H]1O | 2 | 1.3 | 290 |  |  |  | 
13 | O=C(/C=C/c1ccc(O)c(O)c1)OCC(OC(=O)/C=C/c1ccc(O)c(O)c1)C(=O)O (stereo not drawn) | 2.3 | 0.52 | 145 |  |  |  | 
14 | O=C(/C=C/c1ccc(O)c(O)c1)OC(C(=O)O)C(OC(=O)/C=C/c1ccc(O)c(O)c1)C(=O)O (stereo in doubt; 1 (L)) |  |  | 264 |  |  |  | 
15 | O=C(Cc1ccc(O)c(O)c1)OC(C(=O)O)C(OC(=O)Cc1ccc(O)c(O)c1)C(=O)O (stereo not drawn) |  | 0.88 | 70 | 35 | 15.6 |  | > 62.5
16 | O=C(/C=C/c1ccc(O)c(O)c1)OC1CCC(OC(=O)/C=C/c2ccc(O)c(O)c2)CC1 (stereo not drawn) | > 341 | 1.03 | 170 |  |  |  | 
17 | O=C(OC(C(=O)O)C(OC(=O)c1cc(O)ccc1O)C(=O)O)c1cc(O)ccc1O (stereo not drawn) | > 238 |  | > 238 |  |  |  | 

Row | Compound | EC50 [1, 6] [µM] | IC50 [2] [µM] | LD5 (MT2) [µM] | EC50 [1] [µM] | EC50 [3] [µM] | EC50 [4] [µM] | EC50 [5] [µM]
18 | O=C(OC(C(=O)O)C(OC(=O)c1cccc(O)c1O)C(=O)O)c1cccc(O)c1O (stereo not drawn) | > 38 | 1.07 | 19 |  |  |  | 
19 | O=C(/C=C/c1cccc(O)c1)OC(C(=O)O)C(OC(=O)/C=C/c1cccc(O)c1)C(=O)O (stereo not drawn) | > 283 |  | 566 |  |  |  | 
20 | O=C(OC(C(=O)O)C(OC(=O)c1cc(O)c(O)c(O)c1)C(=O)O)c1cc(O)c(O)c(O)c1 (stereo not drawn) |  | 0.97 | 2.7 | 0.66 | 0.29 | 31.2 | 
21 | O=C(/C=C\c1ccc(O)c(O)c1)OC1CCCCC1OC(=O)/C=C\c1ccc(O)c(O)c1 (stereo not drawn) | > 90.9 | 8.36 | 22.7 |  |  |  | 
22 | O=C(/C=C/c1ccc(O)c(O)c1)OC1C[C@](O)(C(=O)O)C[C@@H](O)[C@H]1OC(=O)/C=C/c1ccc(O)c(O)c1 (stereo partly drawn) | 4 | 0.6 | 145 |  |  |  | 
23 | O=C(OC(C(=O)O)C(OC(=O)c1ccc(F)c(F)c1)C(=O)O)c1ccc(F)c(F)c1 (stereo not drawn) | > 59.2 |  | 28.9 |  |  |  | 
24 | O=C(/C=C/c1ccccc1)OC(C(=O)O)C(OC(=O)/C=C/c1ccccc1)C(=O)O (stereo not drawn) |  |  | > 245 |  |  |  | 
25 | O=C(OC(C(=O)O)C(OC(=O)c1cc(O)cc(O)c1)C(=O)O)c1cc(O)cc(O)c1 (stereo not drawn) | > 119 |  | > 119 |  |  |  | 
26 | O=C(O)[C@]1(O)C[C@@H](O)[C@@H](O)[C@H](O)C1 [QUINIC ACID] | > 1820 |  | 907 |  |  |  | 
27 | O=C(/C=C/c1ccc(O)c(O)c1)O[C@@H]1C[C@](O)(C(=O)O)C[C@@H](O)[C@H]1O [CHLOROGENIC ACID] | > 497 |  | 249 |  |  |  | 
28 | O=C(O)/C=C/c1ccc(O)c(O)c1 [CAFFEIC ACID] | > 1390 |  | 1389 |  |  |  | 
29 | O=C(/C=C\c1ccc(O)c(O)c1)OC1CCCC(OC(=O)/C=C\c2ccc(O)c(O)c2)C1 (stereo not drawn) | > 68.2 | 1.63 | 36.4 |  |  |  | 
30 | COc1ccc(/C=C/C(=O)OC(C(=O)O)C(OC(=O)/C=C/c2ccc(OC)c(OC)c2)C(=O)O)cc1OC (stereo not drawn) | > 178 |  | 89 |  |  |  | 
31 | O=C(OC(C(=O)O)C(OC(=O)c1ccc(O)c(O)c1)C(=O)O)c1ccc(O)c(O)c1 (stereo not drawn) |  | 0.43 | 90 | 0.95 | 0.82 |  | > 52.5
32 | O=C(/C=C/c1ccc(O)c(O)c1)Oc1cc(OC(=O)/C=C/c2ccc(O)c(O)c2)cc(C(=O)O)c1 | > 75 | 6.9 | 100 |  |  |  | 
33 | O=C(/C=C\c1ccc(O)c(O)c1)OC1CCC(OC(=O)/C=C\c2ccc(O)c(O)c2)CC1 (stereo not drawn) | > 45 | 1.01 | 20.5 |  |  |  | 
34 | O=C(/C=C/c1ccc(O)c(O)c1)O[C@@H]1CC(OC(=O)/C=C/c2ccc(O)c(O)c2)(C(=O)O)C[C@@H](O)C1O (single isomer, unassigned) [CYNARIN] | 4 | 1.6 | 145 |  |  |  | 
